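Step 1: Grow cells in 96-well plates. Step 2: Expose to compound for 48 hours at 5 concentrations. Step 3: Interpolate endpoints linearly; if unreached, use highest concentration. GI50 = concentration required for 50% inhibition of growth.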 Calls of active or inactive are those of the source. Cut-off read from the data, not from the text of the source: active = GI50 up to about 1.1 µM and inactive = higher.
Experiments:
Assay in all cases: NCI anticancer screen, dose series, 48 h
[1] = tested on: COLO 205
[2] = tested on: DU-145
[3] = tested on: K562
[4] = tested on: MDA-MB-231
[5] = tested on: Malme-3M
[6] = tested on: NCI-H226
[7] = tested on: OVCAR-4
[8] = tested on: OVCAR-5
[9] = tested on: PC-3
[10] = tested on: SF-295
[11] = tested on: SK-MEL-28
[12] = tested on: SK-MEL-5
[13] = tested on: SN12C
[14] = tested on: SNB-19
[15] = tested on: SNB-75
[16] = tested on: TK-10
[17] = tested on: U-251
[18] = tested on: UACC-257
[19] = tested on: UACC-62
[20] = tested on: UO-31

Row | SMILES | GI50 [1] | GI50 [2] | GI50 [3] | GI50 [4] | GI50 [5] | GI50 [6] | GI50 [7] | GI50 [8] | GI50 [9] | GI50 [10] | GI50 [11] | GI50 [12] | GI50 [13] | GI50 [14] | GI50 [15] | GI50 [16] | GI50 [17] | GI50 [18] | GI50 [19] | GI50 [20]
1 | CSC(=S)OC1C(CO[Si](C)(C)C(C)(C)C)OC2OC(C)(C)OC21 (stereo not given) | 19.2 µM (inactive) | 33.5 µM (inactive) | 17.1 µM (inactive) | 17.7 µM (inactive) | 14.8 µM (inactive) | 14.5 µM (inactive) | 49.4 µM (inactive) | 21.3 µM (inactive) | 15.8 µM (inactive) | 17.4 µM (inactive) | 40.6 µM (inactive) | 16.8 µM (inactive) | 21.3 µM (inactive) | 21 µM (inactive) | > 100 µM (inactive) | 20.5 µM (inactive) | 17.5 µM (inactive) | 17.1 µM (inactive) | 17 µM (inactive) | 17.7 µM (inactive)
2 | c1ccc(C2C3=C(c4ccccc4CC3)N3c4cc5c(cc4=NC34CCCCC24)Nc2ccccc2N=5)cc1 (stereo not given) | > 10 µM (inactive) | > 10 µM (inactive) | 5.27 µM (inactive) | 9.79 µM (inactive) | > 10 µM (inactive) | 6.58 µM (inactive) | 5.79 µM (inactive) | > 10 µM (inactive) | 6.92 µM (inactive) | > 10 µM (inactive) | > 10 µM (inactive) | > 10 µM (inactive) | > 10 µM (inactive) | > 10 µM (inactive) | 9.27 µM (inactive) | > 10 µM (inactive) | > 10 µM (inactive) | > 10 µM (inactive) | > 10 µM (inactive) | 6.55 µM (inactive)
3 | c1ccc2c(c1)ncn2CCn1ccnc1 | > 100 µM (inactive) | > 100 µM (inactive) | > 100 µM (inactive) | > 100 µM (inactive) | > 100 µM (inactive) | > 100 µM (inactive) | 15.8 µM (inactive) | > 100 µM (inactive) | > 100 µM (inactive) | > 100 µM (inactive) | > 100 µM (inactive) | > 100 µM (inactive) | > 100 µM (inactive) | > 100 µM (inactive) | > 100 µM (inactive) | > 100 µM (inactive) | > 100 µM (inactive) |  | > 100 µM (inactive) | > 100 µM (inactive)
4 | COc1nn(Cc2ccccn2)c2ccc([N+](=O)[O-])cc12 | > 100 µM (inactive) | > 100 µM (inactive) | 31 µM (inactive) | 57.4 µM (inactive) | > 100 µM (inactive) | 85.9 µM (inactive) | > 100 µM (inactive) | > 100 µM (inactive) | > 100 µM (inactive) | > 100 µM (inactive) | > 100 µM (inactive) | 30.5 µM (inactive) | > 100 µM (inactive) | > 100 µM (inactive) | 17.3 µM (inactive) | 53.1 µM (inactive) | > 100 µM (inactive) | 94 µM (inactive) | 38.3 µM (inactive) | 32.4 µM (inactive)
5 | COC(=O)c1cc(OS(=O)(=O)C(F)(F)F)c(=O)n2c1CCCC2 | > 100 µM (inactive) | > 100 µM (inactive) |  | > 100 µM (inactive) | > 100 µM (inactive) | 9.2 µM (inactive) | > 100 µM (inactive) | > 100 µM (inactive) | > 100 µM (inactive) | > 100 µM (inactive) | > 100 µM (inactive) | > 100 µM (inactive) | > 100 µM (inactive) | > 100 µM (inactive) | > 100 µM (inactive) | > 100 µM (inactive) | > 100 µM (inactive) | > 100 µM (inactive) | 86.3 µM (inactive) | > 100 µM (inactive)
6 | COc1ccccc1N1CCN(CCCN2C(C(=O)c3ccccc3)=C(O)c3c(C)cc(C)nc3S2(=O)=O)CC1 | 64 µM (inactive) | > 100 µM (inactive) | 56.5 µM (inactive) | > 100 µM (inactive) | > 100 µM (inactive) | 0.867 µM (active) | 73.3 µM (inactive) | 92.7 µM (inactive) | > 100 µM (inactive) | 35.7 µM (inactive) | > 100 µM (inactive) | 51.9 µM (inactive) | 63 µM (inactive) | 48.8 µM (inactive) | 5.87 µM (inactive) | > 100 µM (inactive) | 58.6 µM (inactive) | 74.1 µM (inactive) | > 100 µM (inactive) | 27.8 µM (inactive)
7 | CN(CCCNC(=O)c1nn(-c2ccccc2)c2c1ccc1ccccc12)CCCNC(=O)c1nn(-c2ccccc2)c2c1ccc1ccccc12 | 1.65 µM (inactive) | 1.91 µM (inactive) | 1.29 µM (inactive) | 2.12 µM (inactive) | 1.77 µM (inactive) | 2.08 µM (inactive) | 1.82 µM (inactive) | 2.3 µM (inactive) | 1.52 µM (inactive) | 1.87 µM (inactive) | 1.74 µM (inactive) | 1.77 µM (inactive) | 1.85 µM (inactive) | 1.79 µM (inactive) | 1.64 µM (inactive) | 1.78 µM (inactive) | 1.6 µM (inactive) | 1.98 µM (inactive) | 1.6 µM (inactive) | 1.52 µM (inactive)
8 | C=CCNC(=O)NNC(O)(C(=O)OCC)C(F)(F)F (stereo not given) | > 100 µM (inactive) | > 100 µM (inactive) | > 100 µM (inactive) | > 100 µM (inactive) | > 100 µM (inactive) | > 100 µM (inactive) | > 100 µM (inactive) | > 100 µM (inactive) | > 100 µM (inactive) |  | > 100 µM (inactive) | > 100 µM (inactive) | > 100 µM (inactive) | > 100 µM (inactive) | > 100 µM (inactive) | > 100 µM (inactive) | > 100 µM (inactive) | > 100 µM (inactive) |  | > 100 µM (inactive)
9 | CCCCCCCCCCCCCCCCCCOP(=O)([O-])OC1CC[N+](C)(C)CC1 [PERIFOSINE] | 3.24 µM (inactive) | 16.9 µM (inactive) | 16.4 µM (inactive) | 6.89 µM (inactive) | 7.06 µM (inactive) | 11.2 µM (inactive) | > 9.95 µM (inactive) | 2.52 µM (inactive) | 0.873 µM (active) | 4.98 µM (inactive) | 17.9 µM (inactive) | 15.8 µM (inactive) | 4.6 µM (inactive) | 9.25 µM (inactive) | 5.14 µM (inactive) | 2.04 µM (inactive) | 12.4 µM (inactive) | 19.8 µM (inactive) | 8.39 µM (inactive) | 8.91 µM (inactive)
10 | C[N+](C)(C)CC1CCc2ccccc2C1=O (stereo not given) | 7.55 µM (inactive) | 18.6 µM (inactive) | 1.79 µM (inactive) | 7.13 µM (inactive) | 1.8 µM (inactive) | 24.2 µM (inactive) | 4.75 µM (inactive) | 16.1 µM (inactive) | 15.5 µM (inactive) | 34.1 µM (inactive) | 8.89 µM (inactive) | 16.2 µM (inactive) | 8.43 µM (inactive) | 15.1 µM (inactive) | 16.7 µM (inactive) | 16.1 µM (inactive) | 5.64 µM (inactive) | 12.2 µM (inactive) | 5.42 µM (inactive) | 18.3 µM (inactive)
11 | Cc1ccc(Nc2nc(=S)[nH]c3[nH]ncc23)cc1 | 39.5 µM (inactive) | 85.5 µM (inactive) | 49 µM (inactive) | > 100 µM (inactive) | > 100 µM (inactive) | > 100 µM (inactive) | 90.4 µM (inactive) | > 100 µM (inactive) | 51.2 µM (inactive) | 71.3 µM (inactive) | 48.3 µM (inactive) | 37.6 µM (inactive) | 71.8 µM (inactive) | > 100 µM (inactive) | > 100 µM (inactive) | 81.1 µM (inactive) | 64.7 µM (inactive) | 84.5 µM (inactive) | 37.7 µM (inactive) | 78 µM (inactive)
12 | CCNC(=O)Nc1cccc(NC(=O)NCC)n1 | > 100 µM (inactive) | > 100 µM (inactive) | > 100 µM (inactive) | > 100 µM (inactive) | > 100 µM (inactive) | > 100 µM (inactive) | > 100 µM (inactive) | > 100 µM (inactive) | 59.3 µM (inactive) | > 100 µM (inactive) | > 100 µM (inactive) | > 100 µM (inactive) | > 100 µM (inactive) | > 100 µM (inactive) | 24.5 µM (inactive) | 50.2 µM (inactive) | > 100 µM (inactive) | 92.9 µM (inactive) | 36 µM (inactive) | 43.8 µM (inactive)
13 | Cc1cc(Cc2c(C)c(C)c(Cc3cc(C)cc(C(C)(C)C)c3O)c(C)c2C)c(O)c(C(C)(C)C)c1 | > 100 µM (inactive) | > 100 µM (inactive) | > 100 µM (inactive) | > 100 µM (inactive) | > 100 µM (inactive) | > 100 µM (inactive) | > 100 µM (inactive) | > 100 µM (inactive) | > 100 µM (inactive) | > 100 µM (inactive) | > 100 µM (inactive) | > 100 µM (inactive) | > 100 µM (inactive) | > 100 µM (inactive) | > 100 µM (inactive) | > 100 µM (inactive) | > 100 µM (inactive) | > 100 µM (inactive) | > 100 µM (inactive) | > 100 µM (inactive)
14 | COc1cccc(-c2cc(O)c3cccnc3n2)c1 | 0.0771 µM (active) | 0.556 µM (active) | 0.0339 µM (active) | 1.27 µM (inactive) | > 100 µM (inactive) | 0.325 µM (active) | > 40.5 µM (inactive) |  | 0.158 µM (active) | 0.075 µM (active) | 0.234 µM (active) | 0.0546 µM (active) | 0.406 µM (active) | 0.213 µM (active) | 0.0857 µM (active) | > 100 µM (inactive) | 0.0984 µM (active) | > 100 µM (inactive) | 0.0662 µM (active) | 12.3 µM (inactive)
